Here are results for three compounds from publication PMC6689897, “Drugging an undruggable pocket on KRAS” (Proceedings of the National Academy of Sciences of the …, 2019).

In this test the test system is NCI-H358 cells. In words: pERK quantification (Meso Scale Discovery). It counts as cell-based, human. The protocol: Active RAS signals through RAF and MEK to induce phosphorylation of ERK (phospho-ERK). Phospho-ERK levels were quantified using a plate-based electrochemiluminescent assay (MESO SCALE DISCOVERY). […]
252 (175 cm2) using RPMI medium supplemented with 10% fetal bovine serum. Cultures
253 were incubated at 37 °C and 5% CO2 in a humidified atmosphere, with medium change
254 or subcultivation 2-3 times a week. […]
257 atmosphere, with medium change or subcultivation 2-3 times a week. In case starvation
258 conditions were used in combination with EGF stimulation, cells were kept in medium
260 stimulation (50ng/mL) for 10 minutes. […]
308 The next day the compounds (30µL of serial dilutions) were added in triplicates. The
310 nano molar minimum. Compounds (Stock: 10mM in 100% DMSO) were diluted in
311 medium. Cells were incubated at 37°C and 5% CO2 in a humidified atmosphere for 14
312 days. […]
315 wavelength was 544/15 nm, emission 590 nm. Data were fitted by iterative calculation
316 using a sigmoidal curve analysis program based on GraphPAD Prism with variable hill
319 MAPK pathway signaling (pERK, pAKT quantification)
320 MSD 96-well multispot assays for Phospho/Total ERK1/2 and Phospho(Ser473)/Total
321 AKT whole cell lysate kits (Meso Scale Discovery, Gaithersburg, MD, #K15107D,
322 #K15100D) were used according to the manufacturer’s instructions. Briefly, 50.000
323 cells were seeded per well and grown in 96 well plates. Cells were washed in ice cold
324 PBS and lysed in 50µL ice-cold lysis buffer supplemented with the provided protease
325 inhibitors. MSD plates were blocked for 1h, washed and 40µL of lysate was added in
326 duplicates to wells and incubated at room temperature for 3 hours while shaking at
327 400rpm. To measure the amount of phosphorylated AKT or ERK, the specific primary
328 antibody was added for 1 hour. After washing, read buffer was added and the plates
329 were measured on a SECTOR 6000 instrument (Meso Scale Discovery). Samples were
330 normalized to total ERK or total AKT values, respectively.
332 RAS GTP detection (Ras G-LISA Activation assay):
333 Ras-GTP levels were analyzed using a Ras G-LISA assay kit (Cytoskeleton Inc.,
335 600.000 cells were seeded in 6 wells and grown to 70% confluence. Cells were washed
337 provided protease inhibitor cocktail. Lysates were quickly frozen in liquid nitrogen
338 and stored at -80°C until further usage. After normalizing protein concentration, 40µg
339 of protein was added in duplicates to wells of the Ras G-LISA plate coated with Ras
340 GTP-binding protein and incubated at 4°C for 30 minutes while shaking at 400rpm. […]
344 HRP detection reagent. Absorbance was measured by 490nm using an EnSpire
345 Multimode Reader (Perkin Elmer). Background was determined by a negative control […]

Consider `C=CC(=O)N1CCN(c2ncnc3c(F)c(-c4c(O)cccc4F)c(Cl)cc23)CC1` [ARS-1620, reference compound], for which, where the note is “high growth factor conditions, 2 h”, the “inhibition of pERK compared with 1” value was “similar, albeit more extended, inhibition of pERK”. With `Cn1cnc(Cn2ccc3ccc(CNCc4[nH]c5ccccc5c4[C@H]4NC(=O)c5ccc(O)cc54)cc32)c1` [Compound 1], where the note is “Homo sapiens, NCI-H358, high growth factor conditions, 2 h, read-out: EC50 inhibition of pERK relative to total ERK”, the EC50 worked out at 5.8 µM. In addition, the pERK levels result (starved 24 h low serum, 2 h compound, then EGF) was “dose-dependently reduced”. Take `CN(C)Cc1[nH]c2ccccc2c1[C@H]1NC(=O)c2ccc(O)cc21` [Compound 18]: the “decrease in phospho-ERK levels” value (at 50 µM, 2 h after treatment) is “almost complete inhibition”.
